Two compounds from patent publication US8084016B2, “Measurement of biosynthesis and breakdown rates of biological molecules that are inaccessible or not easily accessible to direct sampling, non-invasively, by label incorporation into metabolic derivatives and catabolitic products” (The Regents of the University of California, priority 2002, dated 2011) can be followed below.

Data set [1] concerns muscle myosin. Put plainly: Incorporation of ^2H from ^2H2O into urinary 3-methyl-histidine (muscle myosin biosynthesis). The format is in vivo. The settings on record: human subjects, intake of ^2H2O for 4-8 weeks. An excerpt:
An individual undergoing a physical training program or medical therapeutic regimen intended to increase muscle mass by increasing muscle myosin biosynthesis (e.g., an athlete; an elderly person receiving physical therapy after a stroke; a patient with cachexia related to cancer or AIDS who is receiving nutritional or anabolic agent therapy) is given a labeled precursor that is incorporated into the body's proteins during biosynthesis. […] […] […] Total urinary amino acids are isolated with an SPE column. The amino acids are derivatized for gas chromatographic/mass spectrometric analysis. […] The derivatized amino acids are injected into a gas chromatograph/mass spectrometer (e.g., HP 5973 instrument), using, e.g., a DB-225 column. The mass spectrum of the 3-methyl histidine peak is collected while monitoring mass isotopomers at m/z 267 and 268 (parent and M+1 ions, respectively). Relative abundances of the above mass isotopomers are quantified in samples and compared to unlabeled standards ([…] 267+268]=0.1200 in samples and 0.0960 in standards). The proportion of labeled:unlabeled molecules present in the sample is calculated for 3-methylhistidine using MIDA.

Data set [2] can be described thus: Toxicity observation during maintained body water enrichment with ^2H2O. Format: in vivo. To be noted: levels maintained for weeks or months; >100 human subjects; rapid changes in body water enrichment prevented. An excerpt: Relatively high body water enrichments of ^2H2O (e.g., 1-10% of the total body water is labeled) may be achieved using the techniques of the invention. This water enrichment is relatively constant and stable as these levels are maintained for weeks or months in humans and in experimental animals without any evidence of toxicity (FIGS. 3-5). This finding in a large number of human subjects (>100 people) is contrary to previous concerns about vestibular toxicities at high doses of ^2H2O. Applicants have discovered that as long as rapid changes in body water enrichment are prevented (e.g., by initial administration in small, divided doses), high body water enrichments of ^2H2O can be maintained with no toxicities. For example, the low expense of commercially available ^2H2O allows long-term maintenance of enrichments in the 1-5% range at relatively low expense (e.g., calculations reveal a lower cost for 2 months labeling at 2% ^2H2O enrichment, and thus 7-8% enrichment in the alanine precursor pool (FIGS. 6A-B), than for 12 hours labeling of ^2H-leucine at 10% free leucine enrichment, and thus 7-8% enrichment in leucine precursor pool for that period).

A short description of data set [3]: Body water ^2H2O enrichment during oral ^2H2O intake. The format is in vivo, human.

As for `Cn1cncc1C[C@H](N)C(=O)O` [3-methyl-histidine], in data set [1], the “k: replacement rate constant of 3-methyl-histidine” value worked out at 0.037 day⁻¹.
As for `[2H]O[2H]` [^2H2O], the “toxicity at high body water enrichments of ^2H2O” value in data set [2] was “no toxicities”. Also, the “stability of ^2H2O enrichment in body water (precursor pool)” value in data set [3] (human subjects drank 50-100 ml ^2H2O daily for 10-12 weeks (FIG. 4)) was “stable over a period of weeks”. Moreover, in data set [3] (human subjects, intake of ^2H2O for 4-8 weeks), the “^2H2O (%): body water enrichment” value is 1.8%.
